Literature values, collected in patent publication US12691120B2, “Liquid oral formulations for PDE V inhibitors” (LIQMEDS WORLDWIDE LIMITED, priority 2017, dated 2026).
Where a name gives a salt, the structure may show the parent alone. Read-outs that look alike come from different tables or passages of the source.

Tests used:
[1] = tablets or oral suspension
[2] = oral administration
[3] = measured using rats
[4] = EMEA CHMP Assessment Report for Vizarsin
[5] = Jordanian Pharmaceutical Manufacturing Co.

CCCc1nn(C)c2c(=O)[nH]c(-c3cc(S(=O)(=O)N4CCN(C)CC4)ccc3OCC)nc12 [Sildenafil citrate]
solubility in acetone [4]: insoluble | solubility in chloroform [4]: insoluble | solubility in dimethylsulfoxide (DMSO) [4]: soluble | solubility in ethanol [4]: insoluble | solubility in methanol [4]: soluble | solubility in ethanol [5]: ~ 1 mg/ml | times less soluble in ethanol than in water [5]: about 3.5 times | absolute bioavailability [1]: about 41%

CN1CC(=O)N2[C@H](c3ccc4c(c3)OCO4)c3[nH]c4ccccc4c3C[C@@H]2C1=O [Tadalafil]
average time required to reach the maximum blood concentration (Cmax) [2]: 2 h | water solubility: about 2 μg/mL | bioavailability [3]: 20.5%
